# Values quoted from earlier work in patent US7521430B2, “N-glucoside compounds having an inhibitory activity against sodium-dependent glucose transporter” (Mitsubishi Tanabe Pharma Corporation, priority 2003, dated 2009).
# Tested on: diabetic animal models
# Conditions: continuous subcutaneous administration
smiles,measurement,value
O=C(CCc1ccc(O)cc1)c1c(O)cc(O)cc1O[C@@H]1O[C@H](CO)[C@@H](O)[C@H](O)[C@H]1O [phlorizin],hyperglycemia / blood glucose level,hyperglycemia is normalized
